From ChEMBL document CHEMBL1133319, “Eryloside F, a novel penasterol disaccharide possessing potent thrombin receptor antagonist activity” (Bioorg Med Chem Lett, 2000)
Values after ≈ are worked out from the molar mass of the structure shown.

Assays:
Homo sapiens [1] = organism: Homo sapiens; assay: Inhibitory concentration of compound was determined against SFLLRN (3 uM) induced platelet aggregation; format: functional
Homo sapiens [2] = organism: Homo sapiens; assay: Inhibitory concentration of compound was determined against U-46619 (3 uM) induced platelet aggregation; format: functional

IC50 (Homo sapiens [1]): 0.3 mg/L (≈ 0.399 µM)
IC50 (Homo sapiens [2]): 1.7 mg/L (≈ 2.26 µM)
Compound: CC(C)=CCC[C@@H](C)[C@H]1CC[C@@]2(C(=O)O)C3=C(CC[C@]12C)[C@@]1(C)CC[C@H](O[C@@H]2OC[C@H](O)[C@H](O)[C@H]2O[C@@H]2O[C@H](CO)[C@H](O)[C@H](O)[C@H]2O)C(C)(C)[C@@H]1CC3 [ERYLOSIDE F]
